How the values were obtained:
FLAG-Tat = molecular target: T1, FLAG-Tat (Human immunodeficiency virus type 1 group M subtype B, UniProt P69697); assay: Confocal immunofluorescence of FLAG-Tat subcellular localization; assay type: cell-based, HIV-1; conditions: 100 nM dCA, HeLa-CD4-LTR-Luc cells
T1 construct: expressed in transfected cells; host or cells: HeLa-CD4-LTR-Luc
From the text: If dCA were to bind the basic domain of Tat in its disordered form, then one would predict it might also bind to other basic peptide sequences and block their functions. The two well-known proteins that share a similar basic domain with Tat are HIV-1 Rev protein and the cellular protein Hexim-1 (Fig. 3A). As such, we investigated whether dCA could inhibit these similar basic domain functions. The basic domain of Rev is responsible for its nuclear localization ([31]); therefore, we assessed whether dCA could impact the subcellular localization of Rev (Fig. 3B) as previously shown for Tat ([10]). We transfected HeLa-CD4-LTR-Luc cells with a plasmid expressing FLAG-tagged Rev and assessed Rev localization in the presence of 100 nM dCA. […] Twenty-four hours later, cells were collected, and total, nuclear, and cytoplasmic mRNAs were extracted, reverse transcribed, and quantified by quantitative real-time PCR (qRT-PCR).
(A) Sequence of the basic domains of HIV Tat HXB3, HIV Rev Bru and intracellular Hexim-1. […] (C) Quantification of the nucleolar fluorescence of panel B using ImageJ. […] Total, nuclear, and cytoplasmic mRNAs were extracted, and viral messages were determined by qRT-PCR. […] (G) Quantification of nuclear fluorescence of panel F using ImageJ. […] Statistical significance was determined using one-way ANOVA with post hoc Tukey’s test. ns, not significant; ***, P < 0.0001; **, P < 0.001. […]

Hexim-1 = molecular target: T2, Hexim-1 (Homo sapiens, UniProt O94992); assay: Confocal immunofluorescence of Hexim-1 subcellular localization; assay type: cell-based; conditions: HeLa-CD4-LTR-Luc cells
T2 construct: endogenous in cells; host or cells: HeLa-CD4-LTR-LacZ (RNA immunoprecipitation); HeLa-CD4-LTR-Luc (immunofluorescence)
T2 sequence (O94992 whole entry): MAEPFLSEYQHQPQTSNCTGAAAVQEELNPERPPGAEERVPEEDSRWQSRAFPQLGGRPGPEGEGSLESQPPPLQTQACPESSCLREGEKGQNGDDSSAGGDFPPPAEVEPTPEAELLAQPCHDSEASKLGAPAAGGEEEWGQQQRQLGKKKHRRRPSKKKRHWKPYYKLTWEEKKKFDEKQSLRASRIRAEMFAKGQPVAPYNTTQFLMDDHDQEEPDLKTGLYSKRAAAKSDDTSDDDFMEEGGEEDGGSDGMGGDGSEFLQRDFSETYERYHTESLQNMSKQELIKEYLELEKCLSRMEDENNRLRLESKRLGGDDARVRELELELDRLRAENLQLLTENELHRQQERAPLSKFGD
From the text: (A) Sequence of the basic domains of HIV Tat HXB3, HIV Rev Bru and intracellular Hexim-1. […] Shown is confocal microscopy analysis of the subcellular localization of transfected FLAG-Tat or FLAG-Rev in the presence of DMSO or dCA in HeLa-CD4-LTR-Luc cells. Proteins were recognized with anti-FLAG and Alexa Fluor 568-tagged anti-IgG. Magnification 60×. Data are representative of n = 2 independent experiments. (C) Quantification of the nucleolar fluorescence of panel B using ImageJ. Data are the mean ± SEM from 3 to 4 different cells. […] HeLa-CD4-LTR-LacZ cells were infected with strain NL4-3 for 24 hours. The next day, compounds (dCA, 10 nM; KPT, 400 nM; and SCM, 10 nM) were added for 24 hours. Total, nuclear, and cytoplasmic mRNAs were extracted, and viral messages were determined by qRT-PCR. GAPDH was used for normalization. Data are the mean ± SD from n = 5 independent experiments. […] (G) Quantification of nuclear fluorescence of panel F using ImageJ. […] Statistical significance was determined using one-way ANOVA with post hoc Tukey’s test. ns, not significant; ***, P < 0.0001; **, P < 0.001.
Hexim-1 directly binds to cyclin T1 and is responsible for the inactivation of the kinase activity of P-TEFb ([35], [36]). […] Intracellular Hexim-1 was immunoprecipitated, and 7SK snRNP bound to Hexim-1 was extracted, reverse transcribed, and quantified by qRT-PCR as previously described ([42]) (Fig. 3E). […]

T1 sequence (P69697 whole entry): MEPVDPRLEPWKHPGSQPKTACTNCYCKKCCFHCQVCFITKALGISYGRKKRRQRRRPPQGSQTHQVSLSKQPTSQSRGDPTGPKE

Structure (SMILES): CN(C)C1CC23CCC4(O2)C(=CCC2(C)C(c5ccc6ccncc6c5)=CCC24)C=C3C(O)C1O (centres unmarked) [dCA, didehydro-cortistatin A]
- subcellular localization of Tat (FLAG-Tat): significant redistribution of Tat to the periphery of the nucleolus
- Hexim-1 nuclear localization (Hexim-1): did not have any effect

Reference: article PMC6368365, “Didehydro-Cortistatin A Inhibits HIV-1 by Specifically Binding to the Unstructured Basic Region of Tat” (mBio, 2019)
